Assay results taken from patent US10188674B2, “Parenteral formulations for administering macrolide antibiotics” (Cempra Pharmaceuticals, Inc., priority 2012, dated 2019).

How the values were obtained:
[1] = Dynamic Precipitation Model (absorbance at 500 nm on infusion into blood surrogate); format: physicochemical
Protocol: Dynamic Precipitation Model. The dynamic precipitation apparatus is shown in FIG. 1, and is also described in Johnson et al., (2003). The apparatus includes a predetermined distance, illustratively a 15 cm distance, between the tip of the injection needle and the UV flow cell, and three main components to simulate blood flow and different infusion rates of drug. Illustratively, a Cole-Palmer-Masterflex® 7520-00 peristaltic pump is used to direct the flow of blood surrogate at 5 mL/min. Illustratively, a Harvard Apparatus Precision Syringe Pump 22 is used to infuse drug formulations into the system at various injection rates. Illustratively, a Cary UV-50 Bio Spectrophotometer with a 1.00 cm flow cell is used to monitor absorbance as a measure of precipitation in the formulation-blood surrogate system. Each sample is prepared by dissolving test compound and formulation agents into water or vehicle, and adjusting the pH with either 1 M HCl or 1 M NaOH, as appropriate to the indicated final concentration of test compound. Lactic, citric, and tartaric acid formulation agent stock solutions are made by dissolving the predetermined weight of solid or liquid into water and adjusting pH with either 1 M HCl or 1 M NaOH. The blood surrogate (Isotonic Sorensen's Phosphate Buffer, 0.067 M, pH 7.4) is pumped from a reservoir through Tygon® tubing (R-6306) fitted with 2 IV-set Y-injection sites that pass into the flow cell and terminate in a waste container. […]-35 flow meter, along with a timer and graduated cylinder, is used to measure the rate of surrogate blood flow through the system. Illustratively, flow is 5 mL/min. The test compound formulations are infused at different rates through the downstream second Y-injection site into the flow of the blood surrogate entering into the flow cell. A 0.001 M HCl solution is injected into the first Y-injection site following each infusion of test compound to flush the downstream tubing and flow cell. All injections are performed at 25° C. The spectrophotometer software (Cary UVWin) is set to read a constant absorbance, illustratively 500 nm, versus time. Samples are made with buffer and drug concentrations as described. After the flow rate is confirmed at 5 mL/min, the spectrophotometer is set to record absorbance at 500 nm for 5-10 minutes, and injections are performed at different rates as specified. To prevent any residual precipitation build up in the tubing or flow cell, a flush of pH 3 HCl is performed between injections. The flow cell is optionally visually inspected between runs for the presence of precipitation. Static precipitation measurements are also optionally performed by a two-fold serial dilution of test compound formulation in blood surrogate using a laser pointer as a Tyndall beam to determine the presence of particulates. […] An absorbance at or above 0.05 is considered to be the threshold level for assessing precipitation having phlebitic potential.

[2] = test system: New Zealand White female rabbits; test: Pain Tolerance Evaluation, Single Dose Rabbit Ear Vein Model Study; format: in vivo; details: single dose infusions in marginal ear vein, observed during and 30 minutes post infusion
Protocol: Pain Tolerance Evaluation Following Intravenous Infusion in Rabbit. Single Dose Rabbit Ear Vein Model Study. New Zealand White female rabbits weighing 2.5-3.2 kg are evaluated for pain, ear inflammation and phlebitis after intravenous infusion of test compound. Commercial azithromycin citrate is used as a positive control.
CEM-101 lyo (SOL (250.0 mg), mannitol, USP (250.0 mg), L(+)-tartaric acid, USP (29.0 mg), sodium hydroxide, NF (for pH adjustment to pH 4.2)) is reconstituted in a vehicle or formulation as described herein. The placebo is the same formulation without SOL. The reconstituted SOL or placebo is dissolved in an appropriate vehicles, such as 0.45% saline, 0.5% lactic acid at pH 4 in 0.45% saline, 0.5% lactic acid with 10 mM tartaric acid at pH 4 in 0.45% saline. CEM-101 lyo is dissolved in the appropriate vehicle at concentrations of 2 mg/mL or 3 mg/mL. The CEM-101 placebo formulation is dissolved in 0.45% saline. All rabbits are weighed to calculate dosing volumes.
Azithromycin lyophilized vials are commercially available azithromycin citrate for injection (ZITHROMAX IV) in lyophilized form in a 10-mL vial equivalent to 500 mg of azithromycin for intravenous administration. […]
Animals were observed during and post (30 minutes) each infusion, and reactions were scored according to a modified Draize Score and recorded. […]

monkey = test: 28 day toxicology study, intravenous infusion, monkey; format: in vivo; details: 28 days, tartrate-buffered solution of 1 mg/mL in 3% mannitol infused at approximately 1 mL/min
Text: (§1) An intravenous infusion solution of SOL and related compounds suitable for treatment in a disease such as moderately severe to severe community acquired bacterial pneumonia (CABP) is needed. […] However, without being bound by theory, it is believed herein that infusion at higher concentrations and/or at higher rates of infusion, which are highly desirable in the clinical setting, may not be practical with current formulations due to the substantially lower solubility observed with SOL and related compounds compared to other macrolide, enolide, and ketolide compounds.

dog = test: 28 day toxicology study, intravenous infusion, dog; format: in vivo; details: 28 days, tartrate-buffered solution of 1 mg/mL in 3% mannitol infused at approximately 1 mL/min
Text: as §1

[3] = Acid dissociation constants of SOL; format: physicochemical
Text: [drawing 4] and pharmaceutically acceptable salts, hydrates, solvates, esters, and prodrugs thereof. The following acid dissociation constants are observed for SOL, pKa1=9.44; pKa2=3.5. Such dissociation constants are illustrative of compounds that may be characterized as having low basicity.

[4] = test system: New Zealand White female rabbits; test: Tolerance Evaluation, Multiple-Dose Rabbit Ear Vein Model Study; format: in vivo
Protocol: Tolerance Evaluation of Following Intravenous Infusion in the Rabbit. Multiple-Dose Rabbit Ear Vein Model Study. New Zealand White female rabbits weighing 2.5-3.2 kg are evaluated for pain, ear inflammation and phlebitis after receiving an intravenous infusion of test compound once daily for 5 days.
SOL is dissolved in a 0.5% lactic acid formulation at pH 4, and then into 0.45% saline at concentrations of 2 mg/mL or 3 mg/mL.
Four rabbits are dosed; one vehicle-dosed and one each at 2 mg/mL (rate of 3 mL/min), 3 mg/mL (rate of 3 mL/min) and 3 mg/mL (rate of 4 mL/min). All rabbits receive a dose volume of 5 mL and are dosed via intravenous infusion in the right marginal ear vein once daily for 5 days. Animals are observed during and post (30 minutes) each infusion and reactions recorded.

In the case of `CC[C@H]1OC(=O)[C@H](C)[C@@H](O[C@H]2C[C@@](C)(OC)[C@@H](O)[C@H](C)O2)[C@H](C)[C@@H](O[C@@H]2O[C@H](C)C[C@H](N(C)C)[C@H]2O)[C@](C)(O)C[C@@H](C)C(=O)[C@H](C)[C@@H](O)[C@]1(C)O` [erythromycin-lactobionate, erythromycin lactobionate, reference compound], the Absorbance ([1]; 2 mg/mL, 3 mL/min, 0.9% NaCl) is reported as “++++ ((++++) = BQL of <0.003)”.
With “Azithromycin Citrate [Azitromycin citrate, reference compound]” the “reactions upon test article administration” value [2] was “strong movement of ear, head and body with vocalization”, the Absorbance ([1]; 2 mg/mL, 4 mL/min, 0.45% NaCl) was “++++ ((++++) = BQL of <0.003)” and the precipitation ([1]; citrate buffered solution in 0.45% saline at 2 mg/mL and 4 mL/min) was “does not exhibit precipitation and BQL”.
In the case of `CC[C@H]1OC(=O)[C@@](C)(F)C(=O)[C@H](C)[C@@H](O[C@@H]2O[C@H](C)C[C@H](N(C)C)[C@H]2O)[C@](C)(OC)C[C@@H](C)C(=O)[C@H](C)[C@H]2N(CCCCn3cc(-c4cccc(N)c4)nn3)C(=O)O[C@]12C` [SOL, solithromycin], the “pain or other adverse events” value (monkey) is reported as “without evidence of pain or other adverse events”, the “pain or other adverse events” value (dog) is reported as “without evidence of pain or other adverse events” and the pKa1 [3] is reported as 9.44. The pKa2 [3] was 3.5, the “observations, Days 4 and 5” value ([4]; 2 mg/mL, rate of 3 mL/min, also seen in the vehicle-treated rabbit) was “mechanical irritation around the needle stick, without reaction distal to the needle” and the further observation ([4]; 3 mg/mL, rate of 4 mL/min) was “Head and ear twitching”. The “observations, Day 3 until day 5” value ([4]; 3 mg/mL, rates of 3 or 4 mL/min) was “vessel dilation and irritation around and past the needle stick”, the “adverse effects, Days 1 and 2” value ([4]; 0.5% lactic acid formulation pH 4 in 0.45% saline, 5 mL once daily for 5 days, any of the rabbits) was “No adverse effects” and the Absorbance ([1]; 1 mg/mL in 0.45% Saline, 0.3 mL/min) was “BQL”. The Absorbance ([1]; 1 mg/mL in 0.45% Saline, 1.0 mL/min) was “BQL”, the Absorbance ([1]; 1 mg/mL in 0.45% Saline, 3.0 mL/min) was “BQL” and the Absorbance ([1]; 1 mg/mL in 0.45% Saline, 6.0 mL/min) was “about 0.1”. The “injection rates at which precipitation is noted” value (“injection rates” below) ([1]; 1 mg/mL in 5% Mannitol) was “greater than or equal to 3.0 mL/min”, the Absorbance ([1]; 1 mg/mL in 5% Mannitol, 0.3 mL/min) was “BQL” and the Absorbance ([1]; 1 mg/mL in 5% Mannitol, 1.0 mL/min) was “BQL”. For the same compound, the Absorbance ([1]; 1 mg/mL in 5% Mannitol, 3.0 mL/min) was 0.01, the Absorbance ([1]; 1 mg/mL in 5% Mannitol, 6.0 mL/min) was “about 0.05” and the precipitation ([1]; 2 mg/mL in 10 mM Tartaric Acid in 5% Mannitol, pH 4.2, 3 mL/min, infusion 1 minute) was “minimal precipitation”. For the same compound, the precipitation ([1]; 2 mg/mL in 20 mM Tartaric Acid in 5% Mannitol, pH 4.2, 3 mL/min, infusion 1 minute) was “minimal precipitation”, the precipitation ([1]; 2 mg/mL in 38.5 mM Tartaric Acid and 0.5% Monothioglycerol in 3% Mannitol, pH 4.0, 2, 3 or 4 mL/min, infusion 5 minutes) was “minimal precipitation” and the precipitation ([1]; 2 mg/mL in 38.5 mM Tartaric Acid in 5% Mannitol, pH 4.0, 2, 3 or 4 mL/min, infusion 5 minutes) was “minimal precipitation”. The Absorbance ([1]; 2 mg/mL in 0.45% Saline, 0.3 mL/min) was “BQL”, the Absorbance ([1]; 2 mg/mL in 0.45% Saline, 1.0 mL/min) was “BQL” and the Absorbance ([1]; 2 mg/mL in 0.45% Saline, 3.0 mL/min) was “about 0.02”. For the same compound, the Absorbance ([1]; 2 mg/mL in 0.45% Saline, 6.0 mL/min) was “about 0.1”, the “injection rates” value ([1]; 2 mg/mL in 5% Mannitol) was “greater than or equal to 1.0 mL/min” and the Absorbance ([1]; 2 mg/mL in 5% Mannitol, 0.3 mL/min) was “BQL”. For the same compound, the Absorbance ([1]; 2 mg/mL in 5% Mannitol, 1.0 mL/min) was “about 0.03”, the Absorbance ([1]; 2 mg/mL in 5% Mannitol, 3.0 mL/min) was “about 0.06” and the Absorbance ([1]; 2 mg/mL in 5% Mannitol, 6.0 mL/min) was “about 0.1”. For the same compound, the “effect of tartaric acid on observed precipitation” value ([1]; 3 mg/mL in 5 mM Tartaric Acid in 5% Mannitol pH 4.2 vs SOL 2 mg/mL in 5% Mannitol, 2 or 3 mL/min, infusion 2 minutes) was “substantially decreases the amount of observed precipitation”, the “injection rates” value ([1]; 3 mg/mL in 0.45% Saline) was “greater than or equal to 1.0 mL/min” and the Absorbance ([1]; 3 mg/mL in 0.45% Saline, 0.3 mL/min) was “BQL”. The Absorbance ([1]; 3 mg/mL in 0.45% Saline, 1.0 mL/min) was “about 0.02”, the Absorbance ([1]; 3 mg/mL in 0.45% Saline, 3.0 mL/min) was “about 0.1” and the Absorbance ([1]; 3 mg/mL in 0.45% Saline, 6.0 mL/min) was “about 0.3”. For the same compound, the “injection rates” value ([1]; 3 mg/mL in 5% Mannitol) was “greater than or equal to 1.0 mL/min”, the Absorbance ([1]; 3 mg/mL in 5% Mannitol, 0.3 mL/min) was “BQL” and the Absorbance ([1]; 3 mg/mL in 5% Mannitol, 1.0 mL/min) was “about 0.1”. The Absorbance ([1]; 3 mg/mL in 5% Mannitol, 3.0 mL/min) was “about 0.4”, the Absorbance ([1]; 3 mg/mL in 5% Mannitol, 6.0 mL/min) was “about 0.6” and the Absorbance ([1]; 3 mg/mL, 3 mL/min, pH 4.0, 0.9% NaCl) was “− ((−) = ≥0.05)”. The “effect of citrate buffer on precipitation” value ([1]; 0.5, 1 and 5 mM citrate buffer (pH 4) in 0.45% saline, 2 mg/mL and 3 mg/mL) was “does not significantly reduce precipitation”, the “injection rates” value ([1]; 2 or 1 mg/mL in 0.45% saline, 1.0 mL/min is borderline) was “greater than 1.0 mL/min” and the “effect of tartrate buffer on precipitation” value ([1]; 10 or 25 mM tartrate buffer (pH 4) in 0.45% saline, 2 mg/mL and 3 mg/mL) was “does not significantly reduce precipitation”.
